Results taken from patent publication US7498162B2, “Lactic acid bacteria capable of reducing an individual's tendency to develop allergic reactions” (Nestec S.A., priority 2000, dated 2009).

Tests used:
Assay type in all cases: in vivo, Balb/c mice
Spleen lymphocyte = experiment: Splenocyte specific proliferation assay ([3H]-Thy, stimulation index); settings: synthetic peptide given orally; for Spleen lymphocyte SI (test/control): SI: Stimulation Index; for T cell proliferation / T cell response: result in words
Method: (§1) For assessing the tolerogenic properties of the various peptides female Balb/c mice were used, obtained from IFFA-Crédo (L'Abresle France). The animals were all bred and raised on a milk free diet. At the beginning of the experiments the animals were 3 weeks old. They received by gavage native β-lactoglobulin (5 mg/g of body weight), various amounts of digested β-lactoglobulin and various amounts of the different peptides obtained under a) above. Control mice were fed saline water. After 5 days on such a diet all mice were immunized with β-lactoglobulin and ovalbumin (grade V, Sigma) as a non related antigen in order to assess the specificity of the immune response. A delayed type hypersensitivity evaluation (DTH) was performed 21 days after the systemic challenge by comparing the thickness of the left rear footpad, prior to and after the immunization. 24 hours after the immunization the foot pad thickness of the animals were measured (expressed in Δ thickness (mm)). Subsequently, blood was taken from all mice, followed by talking the spleens, that were pooled according to group treatment. Splenocyte specific proliferation assays were performed for each group. The intestinal contents were individually collected. Serum and intestinal samples were individually frozen at −80° C. until performance of the respective assays. Anti-β-lactoglobulin IgE and anti-ovalbumin IgE levels were determined both in serum and intestinal samples.
Spleen cell solutions were homogenized in PBS and purified. The cells were co-cultured in the presence of β-lactoglobulin or phytohemagglutinin A. Tritiated thymidine ([^3H]-Thy (Amersham, Zürich) was added during the last 6 hours of culture and the plates were harvested and analyzed by scintillation counting. Stimulation indices were calculated as the ratio of blank-substracted test and control levels expressed as the mean cpm of [^3H]-Thy incorporated by triplicate cultures.
(§2) The synthetic peptides were analysed for their tolerogenic capacity in the […] mouse model.

MLN lymphocytes = experiment: Mesenteric lymph node lymphocyte proliferation (stimulation index); settings: synthetic peptide given orally
anti-β-lactoglobulin IgE = experiment: Oral tolerance mouse model: anti-β-lactoglobulin IgE ELISA titer; settings: synthetic peptide given orally; for IgE titer (log) (test/control): test value of the test/control pair (control 3.39), mice then immunized with β-lactoglobulin
Method: as §1
The serum and intestinal fluids were diluted and assayed in duplicate for anti-β-lactoglobulin and anti-ovalbumin IgE antibodies using ELISA. Pooled samples of 20 non immunized mice were used as negative controls. The titers were determined by calculating the dilution of the sample, that gave twice the absorbance of the negative control. The titers were expressed as the log10 of the reciprocal of he dilution
as §2

Substance	Spleen lymphocyte SI (test/control) (Spleen lymphocyte)	T cell proliferation / T cell response (Spleen lymphocyte)	MLN lymphocytes SI (test/control) (MLN lymphocytes)	IgE titer (log) (test/control) (anti-β-lactoglobulin IgE)	oral tolerance to BLG (anti-β-lactoglobulin IgE; result in words)	IgE production (anti-β-lactoglobulin IgE; result in words)
T-6: synthetic β-lactoglobulin peptide (residues 84-91 with flanking residues and extra Cys), SEQ ID 22: C F K I D A L N E N K V S R (CFKIDALNENKVSR)	0.53	suppressed	0.29	3.24/3.39 log		
T-6/T-17: synthetic β-lactoglobulin peptide (residues 84-100), SEQ ID 24: CFKIDALNENKVLVLDTDYKKYS (CFKIDALNENKVLVLDTDYKKYS)	0.92		0.81	3.40/3.39 log		
T-13: control peptide, N-terminus of β-lactoglobulin (residues 1-8), SEQ ID 25: L I V T Q T M K S R C (LIVTQTMKSRC) [reference compound]	1.70		0.87	3.20/3.39 log	did not induce	
T-17: synthetic β-lactoglobulin peptide (residues 92-100 with flanking residues and extra Cys), SEQ ID 23: C N K V L V L D T D Y K K Y S (CNKVLVLDTDYKKYS)	0.31	reduced	0.41	2.67/3.39 log		reduced
